Some test systems named below: A498 renal; HCT-15 colon; SNB-75 CNS; SR leukemia; SF-295 CNS; RPMI-8226 leukemia; U251 CNS; T-47D breast; NCI-H23 lung; IGROV1 ovarian.
Holding throughout (test): DTP human tumour cell line panel, 48 h

Each structure is given as a SMILES string.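 Protocol summary: plate cells (96-well), add compound at 5 concentrations, incubate 48 h, interpolate endpoints linearly. GI50: concentration for 50% inhibition of growth. TGI marks complete inhibition of growth.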 Some results are limits rather than exact numbers.

On to `S=C(NCCNC(=S)[S][Sn]([c]1ccccc1)([c]1ccccc1)[c]1ccccc1)[S][Sn]([c]1ccccc1)([c]1ccccc1)[c]1ccccc1`, for which the GI50 in the experiment with A498 renal is 0.0231 µM; with HCT-15 colon, 0.0177 µM; with SNB-75 CNS, 0.0162 µM; with SR leukemia, 0.017 µM; in the experiment on SF-295 CNS, 0.099 µM; in the experiment with RPMI-8226 leukemia it was 0.0234 µM. The GI50 is 0.0187 µM with U251 CNS, 0.02 µM with T-47D breast, 0.0273 µM in the experiment with NCI-H23 lung and 0.0429 µM in the experiment with IGROV1 ovarian. The TGI was found to be 0.0849 µM with A498 renal; 0.0696 µM in the experiment with HCT-15 colon; 0.087 µM with SNB-75 CNS; 16.2 µM in the experiment with SR leukemia; 0.227 µM with SF-295 CNS; 0.147 µM in the experiment on RPMI-8226 leukemia. Also, the TGI was 0.064 µM with U251 CNS, 0.091 µM in the experiment on T-47D breast, 0.119 µM with NCI-H23 lung and 0.216 µM in the experiment with IGROV1 ovarian.
As to `c1ccc2cc(NCNc3ccc4ccccc4c3)ccc2c1`, the TGI in the experiment on A498 renal amounted to 45.6 µM; with HCT-15 colon it was 46.4 µM; in the experiment on SNB-75 CNS, 30.9 µM; in the experiment on SR leukemia it was 31.4 µM; in the experiment on SF-295 CNS, 33.9 µM; with RPMI-8226 leukemia, 29.1 µM. Moreover, the TGI stood at 93.6 µM in the experiment with U251 CNS, 49.4 µM in the experiment with T-47D breast, 30.5 µM in the experiment with NCI-H23 lung and 35 µM with IGROV1 ovarian.
As to `Cc1nc(-c2nc(-c3ccc(OC(F)(F)F)cc3)no2)nn1Cc1cccc(N2CCC(S(C)(=O)=O)CC2)c1`, the GI50 was < 0.0198 µM with A498 renal; > 21.7 µM with HCT-15 colon; 5.13 µM with SNB-75 CNS; 0.397 µM in the experiment on SR leukemia; 0.0227 µM in the experiment on SF-295 CNS; > 39.3 µM in the experiment on U251 CNS. The figures for the GI50 in the experiment on T-47D breast, in the experiment with NCI-H23 lung and with IGROV1 ovarian were 0.0134 µM, < 0.01 µM and > 26.5 µM, respectively. Further, the TGI was 17.1 µM with A498 renal; > 100 µM in the experiment with HCT-15 colon; 48.5 µM in the experiment on SNB-75 CNS; 97.9 µM with SR leukemia; > 77 µM with SF-295 CNS; > 100 µM in the experiment on RPMI-8226 leukemia. For the same compound, the TGI in the experiment with U251 CNS, in the experiment with T-47D breast, in the experiment on NCI-H23 lung and with IGROV1 ovarian was > 100 µM in each case.
Take `O=C([O][Hg][CH2]C1OCCOC1[CH2][Hg][O]C(=O)c1ccccc1)c1ccccc1` (centres undefined): the GI50 in the experiment with A498 renal is 20.3 µM; in the experiment with HCT-15 colon, 8.95 µM; in the experiment with SNB-75 CNS, 16 µM; in the experiment with SR leukemia, 2.22 µM; with SF-295 CNS, 17.6 µM; in the experiment with RPMI-8226 leukemia it was 7.5 µM. Further, the GI50 with U251 CNS was 15.1 µM; in the experiment on T-47D breast, 1.82 µM; in the experiment with NCI-H23 lung it was 8.21 µM; in the experiment on IGROV1 ovarian, 10.1 µM. For the same compound, the TGI in the experiment with A498 renal was 34.8 µM; in the experiment on HCT-15 colon, 24.9 µM; in the experiment with SNB-75 CNS, 29.5 µM; with SR leukemia, 7.21 µM; in the experiment with SF-295 CNS, 32.7 µM; in the experiment on RPMI-8226 leukemia, > 22.6 µM. Moreover, the TGI was 28.4 µM in the experiment with U251 CNS, 3.59 µM in the experiment on T-47D breast, 21.3 µM in the experiment on NCI-H23 lung and 26.9 µM in the experiment with IGROV1 ovarian.
As for `Clc1ccc(Nc2ccnc(N3CCN(c4ccnc5cc(Cl)ccc45)CC3)n2)cc1`, the GI50 is 0.603 µM with A498 renal; 2.49 µM in the experiment on HCT-15 colon; 1.79 µM in the experiment on SNB-75 CNS; 2.51 µM with SR leukemia; 1.73 µM in the experiment with SF-295 CNS; 2.75 µM in the experiment with RPMI-8226 leukemia. Also, the GI50 in the experiment with U251 CNS was 2.84 µM; in the experiment on T-47D breast, 1.99 µM; with NCI-H23 lung, 4.32 µM; with IGROV1 ovarian, 3.82 µM. Also, the total growth inhibition concentration (TGI) with A498 renal came to 6.91 µM; with HCT-15 colon, 10 µM; in the experiment on SNB-75 CNS, 7.29 µM; in the experiment with SR leukemia, 8.75 µM; with SF-295 CNS, 4.23 µM; with RPMI-8226 leukemia, 15.1 µM. Besides, the TGI in the experiment on U251 CNS is 11.1 µM; in the experiment with T-47D breast, 8.53 µM; in the experiment with NCI-H23 lung, 52.3 µM; with IGROV1 ovarian it was > 100 µM.
As for `COc1ccc2c(c1)CC[C@@H]1[C@@H]2CC[C@]2(C)c3c(cc(C(=O)O)c4sccc34)C[C@@H]12`, the GI50 is 15.6 µM in the experiment with A498 renal; 10.8 µM in the experiment on HCT-15 colon; 20.8 µM in the experiment with SNB-75 CNS; 16.4 µM with SR leukemia; 14.3 µM in the experiment on SF-295 CNS; 4.01 µM with RPMI-8226 leukemia. Also, the GI50 in the experiment with U251 CNS was 16.4 µM; in the experiment on T-47D breast, 8.21 µM; in the experiment on NCI-H23 lung, 18.5 µM; with IGROV1 ovarian, 29.7 µM. In addition, the TGI in the experiment on A498 renal was 34.9 µM; in the experiment with HCT-15 colon it was 32 µM; in the experiment on SNB-75 CNS, 47.9 µM; with SR leukemia it was 45.1 µM; in the experiment with SF-295 CNS it was 31.9 µM; in the experiment on RPMI-8226 leukemia, 17.7 µM. Besides, the TGI in the experiment on U251 CNS is 47.5 µM; in the experiment on T-47D breast it was 49 µM; in the experiment with NCI-H23 lung, 39.2 µM; in the experiment on IGROV1 ovarian, > 100 µM.
Turning to `N=N/C(=C\c1c(O)[nH]c2ccccc12)c1ccccc1`, the TGI in the experiment on A498 renal was 91.6 µM; in the experiment with HCT-15 colon it was > 66.4 µM; with SNB-75 CNS, 63.8 µM; in the experiment on SR leukemia it was 97.5 µM; in the experiment on SF-295 CNS, 66 µM; in the experiment on RPMI-8226 leukemia, > 100 µM. The TGI in the experiment on U251 CNS is > 83.9 µM; in the experiment with T-47D breast, > 100 µM; with NCI-H23 lung, > 87.8 µM; in the experiment on IGROV1 ovarian, > 100 µM.
Regarding `CCCc1cc(=O)n2c(C(=O)Nc3cccc(C(=O)OCC)c3)c(C(=O)Nc3ccc(F)cc3)sc2n1`, the GI50 is 8.57 µM with A498 renal; 125 µM in the experiment with HCT-15 colon; 3.54 µM in the experiment with SNB-75 CNS; 51.7 µM in the experiment with SR leukemia; 44.6 µM with SF-295 CNS; 6.2 µM with RPMI-8226 leukemia. Further, the GI50 in the experiment on U251 CNS was 3.55 µM; in the experiment on T-47D breast, 13.5 µM; with NCI-H23 lung it was 66.3 µM; with IGROV1 ovarian, 24.8 µM. Moreover, the TGI in the experiment with A498 renal was 32.2 µM; with HCT-15 colon it was > 140 µM; in the experiment with SNB-75 CNS, 17.5 µM; in the experiment with SR leukemia it was > 140 µM; in the experiment on SF-295 CNS it was > 140 µM; in the experiment with RPMI-8226 leukemia it was > 140 µM. For the same compound, the TGI in the experiment with U251 CNS is 48.6 µM; in the experiment on T-47D breast, > 140 µM; with NCI-H23 lung, > 140 µM; in the experiment on IGROV1 ovarian, 65.9 µM.

The values are drawn from PubChem BioAssay (NCI).
